Measured values reported in US20240239811A1, “5-(5-(PIPERIDIN-4-YL)THIENO[3,2-C]PYRAZOL-2-YL]INDAZOLE DERIVATIVES AND RELATED COMPOUNDS AS MODULATORS FOR SPLICING NUCLEIC ACIDS AND FOR THE T” (REMIX THERAPEUTICS INC., priority 2020, published 2024).
Counter-ions that a name gives are not always drawn.

Assays:
Assay type in all cases: cell-based
SMN2 CJ mRNA = assay: Gene panel canonical junction qPCR assay, SMN2; conditions: Table 6, decrease in CJ mRNA, read-out: SMN2 IC50 (decrease in CJ mRNA levels)
Method in brief: (§1)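 A673 or K562 cells treated 24 h at 37° C with 11-point 3-fold dilutions, top 10 uM, DMSO ≤0.25%. CJ mRNA quantified by RT-qPCR with exon-junction-spanning probeset, ΔΔCt vs housekeeping gene (GAPDH, GUSB or PPIA) and DMSO control. IC50 from 4-parameter fit of percentage CJ decrease.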

HTT mRNA = assay: Splicing assay (RT-qPCR) monitoring HTT splice variants, canonical (CJ) and alternative (AJ) junction; conditions: 50% response, A673 or K562 cell line, 24 hours; for IC50: decrease in CJ mRNA; for AC50: increase in AJ mRNA
Method in brief: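 A673 or K562 cells were treated 24 h with an 11-point 3-fold dilution series (top 10 uM, ≤0.25% DMSO) at 37 °C. HTT canonical- and alternative-junction mRNAs were quantified in lysates by one-step RT-qPCR. Values were normalized to PPIA (A673) or GAPDH/GUSB (K562).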

Target C CJ mRNA = assay: Gene panel canonical junction qPCR assay, Target C; conditions: Table 6, decrease in CJ mRNA, read-out: Target C IC50 (decrease in CJ mRNA levels)
Method in brief: as §1

HTT CJ mRNA = assay: Gene panel canonical junction qPCR assay, HTT; conditions: Table 6, decrease in CJ mRNA, read-out: HTT IC50 (decrease in CJ mRNA levels)
Method in brief: as §1

SMILES	IC50 (SMN2 CJ mRNA)	IC50 (HTT mRNA)	IC50 (Target C CJ mRNA)	IC50 (HTT CJ mRNA)	AC50 (HTT mRNA)
c1n[nH]cc1-n1cc2sc(C3CCNCC3)cc2n1 [Compound 176]	> 10 µM	> 10 µM	> 10 µM	> 10 µM	> 10 µM
Cn1cc2cc(-c3cc4cn(C5=CCOCC5)nc4s3)cc(F)c2n1 [Compound 177]	> 10 µM	> 10 µM	> 10 µM	> 10 µM	> 10 µM
c1n[nH]cc1-n1cc2cc(C3CCNCC3)sc2n1 [Compound 180]	> 10 µM	> 10 µM	> 10 µM	> 10 µM	> 10 µM
Cc1cn2cc(-n3cc4sc(C5CCNCC5)cc4n3)nc2c(C)n1 [Compound 181]	1 to 10 µM	1 to 10 µM	> 10 µM	1 to 10 µM	1 to 10 µM
Cn1cc2cc(-c3cc4cn(C5CNC5)nc4s3)cc(F)c2n1 [Compound 184]	0.1 to 1 µM	1 to 10 µM	> 10 µM	1 to 10 µM	1 to 10 µM
Cn1cc2cc(-c3cc4cn([C@@H]5CCNC[C@H]5F)nc4s3)cc(F)c2n1 [Compound 187]	< 0.1 µM	< 0.1 µM	0.1 to 1 µM	< 0.1 µM	< 0.1 µM
Cc1cn2nc(-n3cc4sc(N5CC6(CN(C)C6)C5)cc4n3)cc(C)c2n1 [Compound 188, 2-(2-{2,8-dimethylimidazo[1,2-b]pyridazin-6-yl}thieno [3,2-c]pyrazol-5-yl)-6-methyl-2,6-diazaspiro [3.3] heptane]	0.1 to 1 µM	0.1 to 1 µM	1 to 10 µM	0.1 to 1 µM	1 to 10 µM
Cc1cn2nc(-n3cc4sc(N5CCC(NC(C)(C)C)C5)cc4n3)cc(C)c2n1 (centres unmarked) [Compound 189, N-tert-butyl-1-(2-{2,8-dimethylimidazo[1,2-b]pyridazin-6-yl}thieno[3,2-c]pyrazol-5-yl) pyrrolidin-3-amine]	1 to 10 µM	> 10 µM	> 10 µM	> 10 µM	> 10 µM
CN(c1cc2sc(-c3ccc(-c4cn[nH]c4)cc3O)nc2s1)[C@@H]1C[C@H]2CC[C@@H](C1)N2 [Compound 191, 2-{5-[(1R,3R,5S)-8-azabicyclo[3.2.1]octan-3-yl(methyl)amino]thieno[2,3-d][1,3]-thiazol-2-yl}-5-(1H-pyrazol-4-yl)phenol]	> 10 µM	> 10 µM	> 10 µM	> 10 µM	> 10 µM
Cc1cn2nc(-c3nc4sc(C5=CCOCC5)cc4s3)cc(C)c2n1 [Compound 195, 6-[5-(3,6-dihydro-2H-pyran-4-yl)thieno[2,3-d][1,3]thiazol-2-yl]-2,8-dimethylimidazo[1,2-b]pyridazine]	0.1 to 1 µM	0.1 to 1 µM	0.1 to 1 µM	0.1 to 1 µM	0.1 to 1 µM
Cc1cn2nc(-c3nc4sc(C5=CCNCC5)cc4s3)cc(C)c2n1 [Compound 198, 4-(2-{2,8-dimethylimidazo[1,2-b]pyridazin-6-yl}thieno[2,3-d][1,3]thiazol-5-yl)-1,2,3,6-tetrahydropyridine]	< 0.1 µM	< 0.1 µM	1 to 10 µM	< 0.1 µM	0.1 to 1 µM
CN1CCCC2(CCN2c2cc3sc(-c4cc(F)c5nn(C)cc5c4)nc3s2)C1 (centres unmarked) [Compound 203, 1-[2-(7-fluoro-2-methylindazol-5-yl)thieno[2,3-d][1,3]thiazol-5-yl]-6-methyl-1,6-diazaspiro[3.5]nonane]	1 to 10 µM	> 10 µM	> 10 µM	> 10 µM	> 10 µM
CN1CCC2(CC1)CCN2c1cc2sc(-c3cc(F)c4nn(C)cc4c3)nc2s1 [Compound 204, 1-[2-(7-fluoro-2-methylindazol-5-yl)thieno[2,3-d][1,3]thiazol-5-yl]-7-methyl-1,7-diazaspiro [3.5]nonane]	1 to 10 µM	1 to 10 µM	1 to 10 µM	1 to 10 µM	1 to 10 µM
Cn1cc2cc(-c3cc4cn(C5CCNCC5)nc4s3)ccc2n1 [Compound 207]	< 0.1 µM	0.1 to 1 µM	1 to 10 µM	0.1 to 1 µM	0.1 to 1 µM
COc1cc2nn(C)cc2cc1-c1cc2cn(C3CCNCC3)nc2s1 [Compound 208]	< 0.1 µM	0.1 to 1 µM	0.1 to 1 µM	0.1 to 1 µM	0.1 to 1 µM
Cn1cc2cc(-c3cc4cn(C5CCNCC5)nc4s3)c(C#N)cc2n1 [Compound 211]	0.1 to 1 µM	1 to 10 µM	1 to 10 µM	1 to 10 µM	1 to 10 µM
Cc1cn2nc(-c3cc4cn(C5CCNCC5)nc4s3)c(O)c2c(C)n1 [Compound 213, 4,6-dimethyl-2-[2-(piperidin-4-yl)thieno[2,3-c]pyrazol-5-yl]pyrazolo[1,5-a]pyrazin-3-ol hydrochloride]	1 to 10 µM	1 to 10 µM	> 10 µM	1 to 10 µM	1 to 10 µM
Cn1cc2cc(-c3cc4cn(C5CCNCC5)nc4s3)ncc2n1 [Compound 214]	0.1 to 1 µM	1 to 10 µM	1 to 10 µM	1 to 10 µM	0.1 to 1 µM

Continued, in another order:

IC50 (SMN2 CJ mRNA)	IC50 (HTT mRNA)	IC50 (Target C CJ mRNA)	IC50 (HTT CJ mRNA)	SMILES	AC50 (HTT mRNA)
1 to 10 µM	> 10 µM	> 10 µM	> 10 µM	Cn1cc2c(F)cc(-n3cc4cc(C5CCNCC5)sc4n3)cc2n1 [Compound 174]	> 10 µM
1 to 10 µM	1 to 10 µM	1 to 10 µM	1 to 10 µM	Cn1cc2cc(-n3cc4sc(C5CCNCC5)cc4n3)c(O)cc2n1 [Compound 178]	1 to 10 µM
< 0.1 µM	< 0.1 µM	< 0.1 µM	< 0.1 µM	C[C@@H]1C[C@H](c2cc3sc(-c4cc(F)c5nn(C)cc5c4)nc3s2)CCN1 [Compound 192, 7-fluoro-2-methyl-5-[5-(2-methylpiperidin-4-yl)thieno[2,3-d][1,3]thiazol-2-yl]indazole]	< 0.1 µM
< 0.1 µM	< 0.1 µM	< 0.1 µM	< 0.1 µM	C[C@@H]1C[C@@H](c2cc3sc(-c4cc(F)c5nn(C)cc5c4)nc3s2)CCN1 [Compound 193, 7-fluoro-2-methyl-5-[5-(2-methylpiperidin-4-yl)thieno[2,3-d][1,3]thiazol-2-yl]indazole]	< 0.1 µM
1 to 10 µM	1 to 10 µM	1 to 10 µM	1 to 10 µM	Cc1cn2nc(-c3nc4sc(C5CCOCC5)cc4s3)cc(C)c2n1 [Compound 196, 2,8-dimethyl-6-[5-(oxan-4-yl)thieno[2,3-d][1,3]thiazol-2-yl]imidazo[1,2-b]pyridazine]	1 to 10 µM
0.1 to 1 µM	0.1 to 1 µM	1 to 10 µM	0.1 to 1 µM	Cc1cn2nc(-c3nc4sc(C5CCNC5)cc4s3)cc(C)c2n1 (centres unmarked) [Compound 197, 3-(2-{2,8-dimethylimidazo[1,2-b]pyridazin-6-yl}thieno [2,3-d][1,3]thiazol-5-yl)pyrrolidine]	0.1 to 1 µM
1 to 10 µM	> 10 µM	> 10 µM	> 10 µM	Cn1cc2cc(-c3nc4sc(N5CCC56CCNC6)cc4s3)cc(F)c2n1 (centres unmarked) [Compound 200, 5-(5-{1,6-diazaspiro[3.4]octan-1-yl}thieno[2,3-d][1,3]thiazol-2-yl)-7-fluoro-2-methy-lindazole]	> 10 µM
> 10 µM	> 10 µM	> 10 µM	> 10 µM	Cn1cc2cc(-c3nc4sc(N5CCC56CCNCC6)cc4s3)cc(F)c2n1 [Compound 201, 1-[2-(7-fluoro-2-methylindazol-5-yl)thieno[2,3-d] [1,3]thiazol-5-yl]-1,7-diazaspiro[3.5]nonane]	> 10 µM
1 to 10 µM	> 10 µM	1 to 10 µM	> 10 µM	Cn1cc2cc(-c3nc4sc(N5CCC56CCCNC6)cc4s3)cc(F)c2n1 (centres unmarked) [Compound 202, 1-[2-(7-fluoro-2-methylindazol-5-yl)thieno[2,3-d][1,3]thiazol-5-yl]-1,6-diazaspiro[3.5]nonane]	> 10 µM
1 to 10 µM	1 to 10 µM	1 to 10 µM	1 to 10 µM	Cc1cn2cc(-c3nc4sc(C5CCNCC5)cc4s3)ncc2n1 [Compound 205, 4-(2-{2-methylimidazo[1,2-a]pyrazin-6-yl}thieno[2,3-d][1,3]thiazol-5-yl)piperidine]	1 to 10 µM
< 0.1 µM	< 0.1 µM	0.1 to 1 µM	< 0.1 µM	Cn1cc2cc(-c3nc4sc(C5CCNCC5)cc4s3)c(O)c(F)c2n1 [Compound 206, 7-fluoro-2-methyl-5-[5-(piperidin-4-yl)thieno[2,3-d][1,3]thiazol-2-yl]indazol-6-ol]	< 0.1 µM
0.1 to 1 µM	0.1 to 1 µM	1 to 10 µM	0.1 to 1 µM	Cn1cc2cc(-c3cc4cn(C5CCNCC5)nc4s3)c(O)cc2n1 [Compound 209, 2-methyl-5-[2-(piperidin-4-yl)thieno[2,3-c]pyrazol-5-yl]indazol-6-ol]	1 to 10 µM
< 0.1 µM	< 0.1 µM	0.1 to 1 µM	< 0.1 µM	Cn1cc2cc(-c3cc4cn(C5CCNCC5)nc4s3)c(F)cc2n1 [Compound 210]	< 0.1 µM
